Series [1] can be described thus: Blood kinetics following multiple intravenous dose levels of Capxol. In kind it is in vivo, rat. The procedure:
Blood was collected from the tail vein and the AUC0-24 was calculated. At 24 hours, blood samples were collected; extracted, and the extract injected on HPLC to determine the level of parent compound in the blood.

The test system of series [2] is ovarian cancer and breast cancer. The note with it: 250 mg/m^2/21 days; cited from earlier work.
For series [3], the system named is patients with breast cancer, non-Hodgkin's lymphoma or ovarian cancer. The note with it: cited from earlier work.

With `CC(=O)O[C@H]1C(=O)[C@@]2(C)[C@H]([C@H](OC(=O)c3ccccc3)[C@]3(O)C[C@H](OC(=O)[C@H](O)[C@@H](NC(=O)c4ccccc4)c4ccccc4)C(C)=C1C3(C)C)[C@]1(OC(C)=O)CO[C@@H]1C[C@@H]2O` [paclitaxel], in series [1] (9 mg/kg dose, given as Capxol), the “level of parent compound in blood after 24 hours” value came to 0.04 ppm. Further, the “increase of parent compound level after 24 hours, factor” value in series [1] (from the 9 mg/kg dose to the 148 mg/kg dose) amounted to 8.5. Besides, in series [2], the objective response rate is reported as 35.9%. In series [3] (24 hour infusion, combined with cyclophosphamide 5,625 mg/m^2 and cisplatin 165 mg/m^2, AHPCS), the MTD is recorded as 775 mg/m^2. The partial response in series [3] (patients with breast cancer, combination with cyclophosphamide and cisplatin) is listed as 54%.

The values above are taken from US8853260B2, “Formulations of pharmacological agents, methods for the preparation thereof and methods for the use thereof” (priority 1997, dated 2014).
